Assay results published in publication PMC3109731 (Journal of clinical psychopharmacology, 2010).

Legend:
[1] = tested on: pregnant women with major depressive disorder; assay: Depression level on the 17-item Hamilton Rating Scale for Depression; format: in vivo, human; conditions: for Mean HRS-D score: fluoxetine 10 to 80 mg daily
[2] = cited from earlier work
[3] = among the 16 subjects with 2 or more repeated depression scores

Question: Which results are given for `CNCCC(Oc1ccc(C(F)(F)F)cc1)c1ccccc1` (stereo not drawn) [FLX, fluoxetine]?
Answer: Mean HRS-D score ([1]; 12 weeks postpartum): 7.6 ± 6.5; Mean HRS-D score ([1]; 20 weeks of gestation): 7.3 ± 3.3; Mean HRS-D score ([1]; 30 weeks of gestation): 8.7 ± 5.6; Mean HRS-D score ([1]; 36 weeks of gestation): 7.1 ± 3.2; Subjects with mild to moderate depression levels (HRS-D 12–22) [1, 3]: 3 subjects; Subjects with remitted depression (HRS-D ≤8) [1, 3]: 13 subjects; Mean HRS-D score ([1]; during delivery): 8.3 ± 5.9; Expected half-life [2]: 48 to 96 h; Time to reach steady-state concentration [2]: ≤ 23 days
